From ChEMBL document CHEMBL5576070, “The recent discovery of a promising pharmacological scaffold derived from carvacrol: A review” (Bioorg Med Chem Lett, 2024)
≈ marks a conversion by molar mass, not a printed value. Blank lines part the entries; values can stand above or below the compound they belong to.

Key:
Pseudomonas aeruginosa [1] = test: Antibacterial activity against Pseudomonas aeruginosa ATCC 27853 assessed as bacterial growth inhibition measured after 18 hrs by CLSI protocol based two-fold serial microdilution method; assay type: functional
Pseudomonas aeruginosa [2] = test: Bactericidal activity against Pseudomonas aeruginosa ATCC 27853 assessed as reduction in bacterial viability; assay type: functional
Streptococcus pneumoniae = test: Antibacterial activity against Streptococcus pneumoniae assessed as reduction in bacterial cell growth inhibition by broth microdilution method; assay type: functional, organism-based
Enterococcus faecalis = test: Antibacterial activity against Enterococcus faecalis ATCC 10541 assessed as reduction in bacterial growth incubated for 24 hrs by broth microdilution method; assay type: functional, organism-based; conditions: ATCC 10541, 24 h
HCT-15 = test: Growth inhibition of human HCT-15 cells incubated for 48 hrs by SRB assay; assay type: functional
MIA PaCa-2 = test: Growth inhibition of human MIA PaCa-2 cells incubated for 48 hrs by SRB assay; assay type: functional
Mus musculus = test: Antinociceptive activity in Swiss mouse assessed as reduction in pain like behavior at 0.003 mg/kg, ip and measured after 1.5 hrs by cold plate test; assay type: functional; set-up: scale not given: the % may be the effect or the level left
[3] = system: Staphylococcus epidermidis; test: Antibacterial activity against Staphylococcus epidermidis ATCC 12228 assessed as reduction in bacterial growth incubated for 18 hrs by two fold serial microdilution method; assay type: functional
Pseudomonas aeruginosa [4] = test: Antibacterial activity against Pseudomonas aeruginosa ATCC 15442 assessed as bacterial growth inhibition measured after 18 hrs by CLSI protocol based two-fold serial microdilution method; assay type: functional
Pseudomonas fluorescens [5] = test: Antibacterial activity against Pseudomonas fluorescens assessed as zone of inhibition; assay type: functional
Pseudomonas fluorescens [6] = test: Antibacterial activity against Pseudomonas fluorescens assessed as reduction in bacterial growth; assay type: functional
Escherichia coli = test: Antibacterial activity against Escherichia coli ATCC 25922 assessed as reduction in bacterial growth incubated for 18 to 20 hrs by broth microdilution assay; assay type: functional; conditions: time 18-20 hrs
Staphylococcus aureus [7] = test: Antibacterial activity against Staphylococcus aureus ATCC 29213 assessed as bacterial growth inhibition measured after 18 hrs by CLSI protocol based two-fold serial microdilution method; assay type: functional
Bacillus subtilis = test: Antibacterial activity against Bacillus subtilis assessed as reduction in bacterial growth incubated for 20 hrs by broth microdilution assay; assay type: functional
Staphylococcus aureus [8] = test: Synergistic antibacterial activity against Staphylococcus aureus ATCC 29213 assessed as fractional inhibitory concentration incubated for 24 hrs in the presence of ampicillin by checkerboard assay; assay type: functional

SMILES: Cc1cc(Cl)c(C(C)C)cc1O
MIC (Pseudomonas aeruginosa [1]): 3.44 µg/mL (≈ 18.6 µM) | MBC (Pseudomonas aeruginosa [2]): 6.87 µg/mL (≈ 37.2 µM)

SMILES: Cc1ccc(C(C)C)cc1OCc1cn(-c2ccc(C(=O)O)cc2)nn1
IC50 (Streptococcus pneumoniae): 15 µg/mL (≈ 42.7 µM) | IC50 (Enterococcus faecalis): 15 µg/mL (≈ 42.7 µM)

SMILES: Cc1c(O)cc(C(C)C)cc1S(=O)(=O)N1CCOCC1
Activity (Mus musculus): 62%

SMILES: Cc1cc(S(=O)(=O)Nc2ccc(F)cc2)c(C(C)C)cc1O
FIC (Staphylococcus aureus [8]): 0.5

Further lines, with some results ahead:

GI50 (HCT-15): 80 µg/mL | GI50 (MIA PaCa-2): 80 µg/mL
SMILES: COc1cccc2c1C(=O)c1c(O)c3c(c(O)c1C2=O)C[C@@](O)(C(=O)CO)C[C@@H]3O[C@H]1C[C@H](N)[C@H](O)[C@H](C)O1.Cl [DOXORUBICIN HYDROCHLORIDE]

MIC [3]: 0.06 µM (≈ 0.00985 µg/mL) | MIC (Pseudomonas aeruginosa [4]): 0.49 µM (≈ 0.0805 µg/mL) | MIC (Pseudomonas fluorescens [6]): 250 µg/mL (≈ 1520 µM) | MIC (Escherichia coli): 250 µg/mL (≈ 1520 µM) | MIC (Staphylococcus aureus [7]): 250 µg/mL (≈ 1520 µM) | MIC (Bacillus subtilis): 250 µg/mL (≈ 1520 µM)
SMILES: COc1cc(C(C)C)ccc1C
inhibition zone (IZ) (Pseudomonas fluorescens [5]): 15 mm
